Here are results for ten molecules from US5998433A, “Condensed compounds, their production and use” (Takeda Chemical Industries, Ltd., priority 1994, dated 1999).

One assay deals with Candida krusei IFO 0584. As to the kind of experiment: Antifungal activity (agar plate dilution method), organism E. The assay is classed as cell-based. Conditions: Pichia kudriavzevii, IFO0584, 35° C., 20 hours, pH 7.0. Here is the method:
(§1) Determination of Antifungal Activity (Agar Plate Dilution Method)
(§2) RPMI 1640 (Gibco BRL) was dissolved in 0.3 M MOPS buffer, pH 7.0, to obtain a 2-fold dilution; this solution was filtered to remove germ cells (0.45 μm). Separately, 1.4% agar (Wako Pure Chemical Industries) was thermally sterilized (121° C., 15 minutes). This agar was mixed with an equal amount of the above 2-fold diluted RPMI 1640 (0.15 M MOPS, pH 7.0). To 9.9 ml of this RPMI 1640 (0.15 M MOPS, pH 7.0)-0.7% agar medium, 0.1 ml of a 100-fold diluted DMSO solution of the test drug was added; this mixture was prepared as an agar plate in a petri dish 9 cm in diameter. The drug (dissolved in DMSO to 100-fold dilution) was used in a series of 2-fold dilutions of a starting concentration of 64 μg/ml in the agar medium. For drug-free control, an agar medium containing 0.1 ml of DMSO or […] of sterile water was prepared. An inoculum of frozen cells was diluted with physiological saline and spot inoculated onto the agar medium (0.005 ml; 700-15,000 cfu) using a microplanter (Sakuma Seisakusho), followed by cultivation at 35° C. for 20 hours. Antifungal activity was assessed macroscopically; the minimum concentration for complete growth inhibition was expressed as MIC (minimum growth inhibitory concentration).

The subject of assay [1] is Candida tropicalis IFO 0587. As to the kind of experiment: Antifungal activity (agar plate dilution method), organism B. The class given is cell-based. Conditions: IFO0587, 35° C., 20 hours, pH 7.0. Here is the method:
as §1, §2

In assay [2] the test system is Candida glabrata IFO 0622. As to the kind of experiment: Antifungal activity (agar plate dilution method), organism D. The assay is classed as cell-based. Conditions: Nakaseomyces glabratus, IFO0622, 35° C., 20 hours, pH 7.0. The protocol:
as §1, §2

The subject of assay [3] is Aspergillus niger IFO 4414. As to the kind of experiment: Antifungal activity (agar plate dilution method), organism I. Conditions: IFO4414, 35° C., 20 hours, pH 7.0. The assay is classed as cell-based. Here is the method: as §1, §2
For assay [4], the system named is Candida tropicalis IFO 10241. As to the kind of experiment: Antifungal activity (agar plate dilution method), organism C. The conditions noted are these: IFO10241, 35° C., 20 hours, pH 7.0. The class given is cell-based. Here is the method:
as §1, §2

For the next assay, the system named is Candida utilis IFO 0619. As to the kind of experiment: Antifungal activity (agar plate dilution method), organism G. The class given is cell-based. Conditions: Williopsis jadinii, IFO0619, 35° C., 20 hours, pH 7.0. The protocol: as §1, §2
The subject of a further assay is Candida krusei IFO 1162. As to the kind of experiment: Antifungal activity (agar plate dilution method), organism F. The assay is classed as cell-based. Conditions: Pichia kudriavzevii, IFO1162, 35° C., 20 hours, pH 7.0. Here is the method: as §1, §2
Assay [5] concerns Aspergillus fumigatus IFO 6344. As to the kind of experiment: Antifungal activity (agar plate dilution method), organism H. The class given is cell-based. The conditions noted are these: IFO6344, 35° C., 20 hours, pH 7.0. Here is the method:
as §1, §2

Assay [6] relates to Candida albicans IFO 0583. As to the kind of experiment: Antifungal activity (agar plate dilution method), organism A. The assay is classed as cell-based. Conditions: IFO0583, 35° C., 20 hours, pH 7.0. The protocol:
as §1, §2

Assay [7] can be described thus: Plasma HDL-cholesterol-elevating effect in Wistar fatty rats. The class given is in vivo, Female Wistar fatty rats. The conditions noted are these: for HDL-cholesterol / Total cholesterol / Glucose / Triglyceride / Non-HDL-cholesterol: plasma, 1 week, stomach tube, mean ± standard deviation; for HDL-cholesterol: control 92.4 ± 9.2; for Total cholesterol: control 154 ± 13; for Glucose: control 285 ± 45; for Triglyceride: control 694 ± 192; for Non-HDL-cholesterol: total minus HDL, control 62.0 ± 12.5. From the text:
Plasma HDL-cholesterol-elevating Effect in Wistar Fatty Rats
Female Wistar fatty rats (19 weeks of age, bred in Experimental Animals Unit, Takeda Chemical Industries, Ltd.) were given a 0.5% methyl-cellulosesolution of compound 31 by a stomach tube for 1 week. Blood was collected via the orbital sinus under non-fasting conditions; plasma total cholesterol and HDL-cholesterol were enzymatically determined using a commercial kit (produced by Wako Pure Chemical Industries, Ltd.). Non-HDL-cholesterol levels were obtained by subtracting HDL-cholesterol from total cholesterol levels. Triglyceride and glucose were also enzymatically determined using commercial kits (both produced by Iatron Laboratories, Inc.).

Structures can show the parent of a compound that is named as a salt.

Take `CN(C)Cc1cc2c(o1)CCN(C(=O)CCCCCc1ccccc1)C2` [Example 6, 1-(2-dimethylaminomethyl-6,7-dihydro-4H-furo[3,2-c]pyridin-5-yl)-6-phenylhexan-1-one hydrochloride]: the MIC (commonly the lowest concentration that inhibits growth of the organism) with Candida krusei IFO 0584 was 4 µg/mL; in [1], 2 µg/mL; in [2], 32 µg/mL; in [3], 8 µg/mL; in assay [4] it was 16 µg/mL; against Candida utilis IFO 0619 it was 2 µg/mL. In addition, the minimum inhibitory concentration (MIC) (in the assay with Candida krusei IFO 1162; in assay [5]; in assay [6]) was 16 µg/mL in each case.

In the case of `CCCCCCCc1ccc(C(=O)N2CCc3cc(CN(C)C)oc3C2)cc1` [Example 21, N,N-dimethyl-[6-(4-heptylbenzoyl)-4,5,6,7-tetrahydrofuro[2,3-c]pyridin-2-ylmethyl]amine hydrochloride], the MIC in the assay with Candida krusei IFO 0584 worked out at 1 µg/mL; in [1], 2 µg/mL; in [2] it was 4 µg/mL; in assay [3], 1 µg/mL; in assay [4], 2 µg/mL; against Candida utilis IFO 0619 it was 1 µg/mL. In addition, the results for the MIC (in the assay with Candida krusei IFO 1162; in assay [5]; in assay [6]) were 2 µg/mL, 1 µg/mL and 2 µg/mL, respectively.

On to `CN(C)Cc1cc2c(o1)CN(C(=O)CCCCCc1ccc(F)cc1)CC2` [Example 27, 1-(2-dimethylaminomethyl-5,7-dihydro-4H-furo[2,3-c]pyridin-6-yl)-6-(4-fluorophenyl)hexan-1-one hydrochloride], for which the minimal inhibitory concentration (MIC) against Candida krusei IFO 0584 turned out to be 4 µg/mL; in [1], 32 µg/mL; in [2], 16 µg/mL; in assay [3], 2 µg/mL; in assay [4], 64 µg/mL; in the assay with Candida utilis IFO 0619, 2 µg/mL. Also, the figures for the MIC (against Candida krusei IFO 1162; in assay [5]; in assay [6]) were 8 µg/mL, 2 µg/mL and 16 µg/mL, respectively.

Take `CN(C)Cc1cc2c(o1)CCN(C(=O)CCCCCc1ccc(F)cc1)C2` [Example 28, 1-(2-dimethylaminomethyl-6,7-dihydro-4H-furo[3,2-c]pyridin-5-yl)-6-(4-fluorophenyl)hexan-1-one hydrochloride]: the minimum inhibitory concentration (MIC) against Candida krusei IFO 0584 was found to be 4 µg/mL; in assay [1], 2 µg/mL; in [2] it was 16 µg/mL; in assay [3], 4 µg/mL; in assay [4], 32 µg/mL; against Candida utilis IFO 0619 it was 2 µg/mL. Also, the MIC against Candida krusei IFO 1162 was determined as 8 µg/mL; in assay [5], 4 µg/mL; in assay [6] it was 8 µg/mL.

With `CN(C)Cc1cc2c(o1)CN(C(=O)c1ccc(C(=O)c3ccc(Cl)cc3)cc1)CC2` [Example 31, N,N-dimethyl-[6-[4-(4-chlorobenzoyl)benzoyl]-4,5,6,7-tetrahydrofuro[2,3-c]pyridin-2-ylmethyl]amine hydrochloride], the minimal inhibitory concentration (MIC) came to 16 µg/mL in the assay with Candida krusei IFO 0584; 2 µg/mL in assay [1]; 64 µg/mL in assay [2]; 0.5 µg/mL in assay [3]; 16 µg/mL in assay [4]; 4 µg/mL against Candida utilis IFO 0619. The results for the MIC (against Candida krusei IFO 1162; in assay [5]; in assay [6]) were 32 µg/mL, 0.5 µg/mL and 8 µg/mL, respectively. In [7] (in words, Wistar fatty rats), the “Plasma HDL-cholesterol level” value was “increased significantly, depending on dose”. In assay [7] (in words, Wistar fatty rats), the Plasma glucose level result is on record as “not affected”. For the same molecule, the “Plasma non-HDL-cholesterol level” value in [7] (in words, Wistar fatty rats) is given as “not affected”. The “Plasma total cholesterol level” value in assay [7] (in words, Wistar fatty rats) is listed as “increased significantly, depending on dose”. Further, the Plasma triglyceride level entry in assay [7] (in words, Wistar fatty rats) is “not affected”. Further, the HDL-cholesterol in assay [7] (0.1 mg/kg-day, p<0.05) was determined as 113 ± 15.4 mg/dL; in assay [7] (0.3 mg/kg-day, p<0.05), 135 mg/dL. Besides, the Total cholesterol in assay [7] (0.1 mg/kg-day) is 175 ± 21 mg/dL; in [7] (0.3 mg/kg-day, p<0.05) it was 192 ± 24 mg/dL. Moreover, the figures for the Glucose in assay [7] (0.1 mg/kg-day) and in assay [7] (0.3 mg/kg-day) were 251 ± 72 mg/dL and 242 ± 39 mg/dL, respectively. Besides, the Triglyceride in [7] (0.1 mg/kg-day) stood at 599 ± 195 mg/dL; in assay [7] (0.3 mg/kg-day), 538 ± 155 mg/dL. Also, the Non-HDL-cholesterol came to 62.5 ± 7.9 mg/dL in assay [7] (0.1 mg/kg-day) and 57.1 ± 10.7 mg/dL in [7] (0.3 mg/kg-day).

As to `CN(C)Cc1cc2c(o1)CCN(C(=O)c1ccc(C(=O)c3ccc(Cl)cc3)cc1)C2` [Example 32, N,N-dimethyl-[5-[4-(4-chlorobenzoyl)benzoyl]-4,5,6,7-tetrahydrofuro[3,2-c]pyridin-2-ylmethyl]amine hydrochloride], the MIC in the assay with Candida krusei IFO 0584 was 32 µg/mL; in assay [1] it was 8 µg/mL; in assay [2] it was 32 µg/mL; in assay [3], 2 µg/mL; in assay [4] it was 32 µg/mL; with Candida utilis IFO 0619 it was 8 µg/mL. The MIC against Candida krusei IFO 1162 amounted to 32 µg/mL; in assay [5], 2 µg/mL; in assay [6], 16 µg/mL.

Regarding `CN(C)Cc1cc2c(o1)CN(C(=O)c1ccc(/C=C\c3ccccc3)cc1)CC2` [Example 33, (Z)-N,N-dimethyl-[6-(4-stilbenecarbonyl)-4,5,6,7-tetrahydrofuro[2,3-c]pyridin-2-ylmethyl]amine hydrochloride], the MIC with Candida krusei IFO 0584 amounted to 8 µg/mL; in [1], 16 µg/mL; in assay [2], 16 µg/mL; in assay [3], 0.25 µg/mL; in assay [4], 64 µg/mL; with Candida utilis IFO 0619 it was 4 µg/mL. In addition, the minimal inhibitory concentration (MIC) against Candida krusei IFO 1162 was 16 µg/mL; in assay [5] it was 0.5 µg/mL; in [6], 32 µg/mL.

Consider `CN(C)Cc1cc2c(o1)CN(C(=O)CCCCSc1ccccc1)CC2` [Example 43, 1-(2-dimethylaminomethyl-5,7-dihydro-4H-furo[2,3-c]pyridin-6-yl)-5-phenylthiopentan-1-one hydrochloride], for which the MIC in the assay on Candida krusei IFO 0584 was determined as 16 µg/mL; in assay [1], 2 µg/mL; in assay [2] it was 16 µg/mL; in assay [3] it was 4 µg/mL; in assay [4], 8 µg/mL; with Candida utilis IFO 0619 it was 2 µg/mL. For the same molecule, the MIC turned out to be 16 µg/mL against Candida krusei IFO 1162, 8 µg/mL in assay [5] and 8 µg/mL in assay [6].

With `CN(C)Cc1cc2c(o1)CCN(C(=O)CCCCSc1ccccc1)C2` [Example 44, 1-(2-dimethylaminomethyl-6,7-dihydro-4H-furo[3,2-c]pyridin-5-yl)-5-phenylthiopentan-1-one hydrochloride], the minimal inhibitory concentration (MIC) in the assay on Candida krusei IFO 0584 was found to be 8 µg/mL; in [1] it was 8 µg/mL; in assay [2], 32 µg/mL; in [3], 8 µg/mL; in assay [4], 8 µg/mL; in the assay with Candida utilis IFO 0619, 4 µg/mL. In addition, the minimal inhibitory concentration (MIC) came out at 16 µg/mL in the assay with Candida krusei IFO 1162, 8 µg/mL in assay [5] and 16 µg/mL in assay [6].

With `CN(C)Cc1cc2c(o1)CCN(C(=O)OCCCCc1ccccc1)C2` [Example 48, N,N-dimethyl-[5-(4-phenylbutoxycarbonyl)-4,5,6,7-tetrahydrofuro[3,2-c]pyridin-2-ylmethyl]amine hydrochloride], the MIC is 8 µg/mL in the assay with Candida krusei IFO 0584; 8 µg/mL in assay [1]; 32 µg/mL in [2]; 16 µg/mL in assay [3]; 64 µg/mL in assay [4]; 2 µg/mL against Candida utilis IFO 0619. For the same molecule, the minimal inhibitory concentration (MIC) in the assay with Candida krusei IFO 1162 amounted to 16 µg/mL; in [5] it was 32 µg/mL; in [6] it was 16 µg/mL.
